Counter-ions that a name gives are not always drawn.
**Q.** With `NC[C@H]1CNc2cccc(-c3ccccc3Cl)c2O1` (as salt: hydrochloride) [Example 39, 1-[(2S)-8-(2-chlorophenyl)-3,4-dihydro-2H-1,4-benzoxazin-2-yl]methanamine] as the compound, how does the melting point read?
**A.** 145 °C (dec.)

**Q.** Which melting point does the source give for `NC[C@@H]1CNc2cccc(-c3ccccc3Cl)c2O1` (as salt: hydrochloride) [Example 40, 1-[(2R)-8-(2-chlorophenyl)-3,4-dihydro-2H-1,4-benzoxazin-2-yl]methanamine] here?
**A.** 135 °C (dec.)

**Q.** With `NC[C@@H]1CNc2cccc(-c3ccccc3C(F)(F)F)c2O1` (as salt: hydrochloride) [Example 41, 1-{(2R)-8-[2-(trifluoromethyl)phenyl]-3,4-dihydro-2H-1,4-benzoxazin-2-yl}methanamine] as the compound, how does the melting point read?
**A.** 180 °C (dec.)

**Q.** For `Cc1cc(Cl)ccc1-c1cccc2c1O[C@H](CN)CN2` (as salt: hydrochloride) [Example 42, 1-[(2R)-8-(4-chloro-2-methylphenyl)-3,4-dihydro-2H-1,4-benzoxazin-2-yl]methanamine], which melting point is on record?
**A.** 195 °C (dec.)

**Q.** Which melting point does the source give for `NC[C@@H]1CNc2cccc(-c3ccccc3F)c2O1` (as salt: hydrochloride) [Example 43, 1-[(2R)-8-(2-fluorophenyl)-3,4-dihydro-2H-1,4-benzoxazin-2-yl]methanamine] here?
**A.** 186 °C (dec.)

**Q.** With `COc1ccc(-c2cccc3c2O[C@H](CN)CN3)c(C)c1` (as salt: hydrochloride) [Example 44, 1-[(2R)-8-(4-methoxy-2-methylphenyl)-3,4-dihydro-2H-1,4-benzoxazin-2-yl]methanamine] as the compound, how does the melting point read?
**A.** 221 °C (dec.)

**Q.** For `COc1ccc(-c2cccc3c2O[C@H](CN)CN3)cc1` (as salt: hydrochloride) [Example 45, 1-[(2R)-8-(4-methoxyphenyl)-3,4-dihydro-2H-1,4-benzoxazin-2-yl]methanamine], which melting point is on record?
**A.** 196 °C (dec.)

**Q.** For `COc1ccc(-c2cccc3c2O[C@H](CN)CN3)c(Cl)c1` (as salt: hydrochloride) [Example 46, 1-[(2R)-8-(2-chloro-4-methoxyphenyl)-3,4-dihydro-2H-1,4-benzoxazin-2-yl]methanamine], which melting point is on record?
**A.** 211 °C (dec.)

**Q.** For `NC[C@H]1CNc2cccc(-c3ccccc3C(F)(F)F)c2O1` (as salt: hydrochloride) [Example 47, 1-{(2S)-8-[2-(trifluoromethyl)phenyl]-3,4-dihydro-2H-1,4-benzoxazin-2-yl}methanamine], which melting point is on record?
**A.** 179 °C (dec.)

**Q.** With `Cc1cc(Cl)ccc1-c1cccc2c1O[C@@H](CN)CN2` (as salt: hydrochloride) [Example 48, 1-[(2S)-8-(4-chloro-2-methylphenyl)-3,4-dihydro-2H-1,4-benzoxazin-2-yl]methanamine] as the compound, how does the melting point read?
**A.** 196 °C (dec.)

**Q.** With `NC[C@H]1CNc2cccc(-c3ccccc3F)c2O1` (as salt: hydrochloride) [Example 49, 1-[(2S)-8-(2-fluorophenyl)-3,4-dihydro-2H-1,4-benzoxazin-2-yl]methanamine] as the compound, how does the melting point read?
**A.** 190 °C (dec.)

**Q.** Which melting point does the source give for `COc1ccc(-c2cccc3c2O[C@@H](CN)CN3)c(C)c1` (as salt: hydrochloride) [Example 50, 1-[(2S)-8-(4-methoxy-2-methylphenyl)-3,4-dihydro-2H-1,4-benzoxazin-2-yl]methanamine] here?
**A.** 222 °C (dec.)

**Q.** Which melting point does the source give for `COc1ccc(-c2cccc3c2O[C@@H](CN)CN3)cc1` (as salt: hydrochloride) [Example 51, 1-[(2S)-8-(4-methoxyphenyl)-3,4-dihydro-2H-1,4-benzoxazin-2-yl]methanamine] here?
**A.** 198 °C (dec.)

**Q.** Which melting point does the source give for `COc1ccc(-c2cccc3c2O[C@@H](CN)CN3)c(Cl)c1` (as salt: hydrochloride) [Example 52, 1-[(2S)-8-(2-chloro-4-methoxyphenyl)-3,4-dihydro-2H-1,4-benzoxazin-2-yl]methanamine] here?
**A.** 215 °C (dec.)

**Q.** With `NC[C@@H]1CNc2cccc(-c3cc(Cl)ccc3Cl)c2O1` (as salt: hydrochloride) [Example 53, 1-[(2R)-8-(2,5-dichlorophenyl)-3,4-dihydro-2H-1,4-benzoxazin-2-yl]methanamine] as the compound, how does the melting point read?
**A.** 130 °C (dec.)
